The target of the experiment is hCRTH2 receptor (Homo sapiens (Human), UniProt Q9Y5Y4). Nature of the experiment: hCRTH2 receptor membranes radioligand (3H-PGD2) displacement assay. The note with it: hCRTH2 membrane fragments, Binding-Buffer with 0.1% BSA. The method, then:
Biological Assays: Preparation of hCRTH2 Receptor Membranes and Radioligand Displacement Assay:
First, recombinant HEK293-hCRTH2 cells were detached from culture plates into 5 ml buffer A/plate (Buffer A: 5 mM Tris, 1 mM MgCl2-6H2O pH=7.4) using a rubber policeman. Cells were then transferred into centrifugation tubes and centrifuged for 5 min at 400 g. The cell pellet was resuspended in the same buffer and tubes were frozen at −80° C. Cells were thawed and membrane fragments were generated by homogenization using a polytron homogenizer (30 seconds). The membrane fragments were then centrifuged at 3000 g for 20 minutes and resuspended in buffer C (Buffer C: 75 mM Tris, 25 mM MgCl2, 250 mM Saccharose pH 7.4). Aliquots of membrane fragments were stored at −20° C.
Binding assay was performed in a final assay volume of 250 μl. First, 25 μl of test compound, previously diluted in Binding-Buffer (Binding-Buffer: 50 mM Tris-Base, 100 mM NaCl, 1 mM EDTA, 0.1% BSA (protease free), 0.01% NaN3, 10 mM MnCl2, pH 7.0) was placed into each well. […] Binding assay was started by addition of 100 μl CRTH2 membrane fragments, reaching a final concentration of 20 μg/well. For non-specific binding, PGD2 was added to the reaction mixture to […] final concentration. This assay mix was incubated for 90 minutes at room temperature and then filtered through a GF/C filter 96-well plate which was pre-soaked for 3 hours in 0.5% polyethyleneimine (PEI). The filter-wells were washed three times with ice cold Binding-Buffer. Then, 40 μl of Microscint-40 (Packard) was added to each well and the retained radioactivity quantified in a Topcount (Packard).
Chain of hCRTH2 receptor (Q9Y5Y4 whole entry, the tested form may be a part): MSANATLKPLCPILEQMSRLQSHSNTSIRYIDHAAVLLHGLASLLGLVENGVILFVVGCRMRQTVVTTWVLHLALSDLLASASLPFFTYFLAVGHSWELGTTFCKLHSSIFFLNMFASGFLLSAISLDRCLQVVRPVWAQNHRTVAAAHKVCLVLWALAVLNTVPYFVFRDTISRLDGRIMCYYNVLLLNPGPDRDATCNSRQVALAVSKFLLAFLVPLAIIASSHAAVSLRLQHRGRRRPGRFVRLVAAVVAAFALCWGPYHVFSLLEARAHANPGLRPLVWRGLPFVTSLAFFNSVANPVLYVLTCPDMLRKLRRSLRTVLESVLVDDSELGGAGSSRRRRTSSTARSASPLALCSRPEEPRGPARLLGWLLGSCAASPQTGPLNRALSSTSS
`O=C(O)COc1ccc(Cl)cc1C1c2scnc2CCN1C(=O)NCc1ccccc1F` (racemic) [Example 1, (±)-{4-Chloro-2-[5-(2-fluoro-benzylcarbamoyl)-4,5,6,7-tetrahydro-thiazolo[5,4-c]pyridin-4-yl]-phenoxy}-acetic acid] had an IC50 of 9.4 nM.
As for `O=C(O)COc1ccc(Cl)cc1C1c2scnc2CCN1C(=O)NCc1cccc(F)c1` (racemic) [Example 2, (±)-{4-Chloro-2-[5-(3-fluoro-benzylcarbamoyl)-4,5,6,7-tetrahydro-thiazolo[5,4-c]pyridin-4-yl]-phenoxy}-acetic acid], the half-maximal inhibitory concentration (IC50) is 38.9 nM.
Consider `O=C(O)COc1ccc(Cl)cc1C1c2scnc2CCN1C(=O)NCc1ccc(F)cc1` (racemic) [Example 3, (±)-{4-Chloro-2-[5-(4-fluoro-benzylcarbamoyl)-4,5,6,7-tetrahydro-thiazolo[5,4-c]pyridin-4-yl]-phenoxy}-acetic acid], for which the IC50 was found to be 124 nM.
Molecule `O=C(O)COc1ccc(Cl)cc1C1c2sc(C(F)(F)F)nc2CCN1C(=O)OCc1ccccc1` (racemic) [Example 12, (±)-4-(2-Carboxymethoxy-5-chloro-phenyl)-2-trifluoromethyl-6,7-dihydro-4H-thiazolo[5,4-c]pyridine-5-carboxylic acid benzyl ester] came in with an IC50 of 6.5 nM.
Molecule `CC(C)c1nc2c(s1)C(c1cc(Cl)ccc1OCC(=O)O)N(C(=O)OCc1ccccc1)CC2` (racemic) [Example 13, (±)-4-(2-Carboxymethoxy-5-chloro-phenyl)-2-isopropyl-6,7-dihydro-4H-thiazolo[5,4-c]pyridine-5-carboxylic acid benzyl ester] returned an IC50 of 64.8 nM.
`O=C(O)COc1ccc(Cl)cc1C1c2sc(C3CC3)nc2CCN1C(=O)OCc1ccccc1` (racemic) [Example 14, (±)-4-(2-Carboxymethoxy-5-chloro-phenyl)-2-cyclopropyl-6,7-dihydro-4H-thiazolo[5,4-c]pyridine-5-carboxylic acid benzyl ester] came in with an IC50 of 65.7 nM.
Take `Cc1nc2c(s1)C(c1cc(Cl)ccc1OCC(=O)O)N(C(=O)OCc1ccccc1)CC2` (racemic) [Example 15, (±)-4-(2-Carboxymethoxy-5-chloro-phenyl)-2-methyl-6,7-dihydro-4H-thiazolo[5,4-c]pyridine-5-carboxylic acid benzyl ester]: the IC50 came out at 6.2 nM. Compared with the last molecule, the IC50 is about 11-fold lower.
`CCc1nc2c(s1)C(c1cc(Cl)ccc1OCC(=O)O)N(C(=O)OCc1ccccc1)CC2` (racemic) [Example 16, (±)-4-(2-Carboxymethoxy-5-chloro-phenyl)-2-ethyl-6,7-dihydro-4H-thiazolo[5,4-c]pyridine-5-carboxylic acid benzyl ester] showed an IC50 of 14.2 nM.
Regarding `O=C(O)COc1ccc(Cl)cc1C1c2sc(Br)nc2CCN1C(=O)OCc1ccccc1` (racemic) [Example 20, (±)-2-Bromo-4-(2-carboxymethoxy-5-chloro-phenyl)-6,7-dihydro-4H-thiazolo[5,4-c]pyridine-5-carboxylic acid benzyl ester], the 50% inhibitory concentration (IC50) stood at 3 nM.
In turn, `O=C(O)COc1ccc(Cl)cc1C1c2scnc2CCN1C(=O)CCOc1ccc(F)cc1` (racemic) [Example 21, (±)-(4-Chloro-2-{5-[3-(4-fluoro-phenoxy)-propionyl]-4,5,6,7-tetrahydro-thiazolo[5,4-c]pyridin-4-yl}-phenoxy)-acetic acid] displayed an IC50 of 19.6 nM. Against the preceding molecule, the IC50 is about 6.5-fold higher.
`O=C(O)COc1ccc(Cl)cc1C1c2scnc2CCN1C(=O)[C@@H]1C[C@H]1c1ccccc1C(F)(F)F` (mixture of isomers) [Example 23, (±)-(4-Chloro-2-{trans-5-[2-(2-trifluoromethyl-phenyl)-cyclopropanecarbonyl]-4,5,6,7-tetrahydro-thiazolo[5,4-c]pyridin-4-yl}-phenoxy)-acetic acid] came in with an IC50 of 6.5 nM.
Take `O=C(O)COc1ccc(Cl)cc1C1c2scnc2CCN1C(=O)[C@@H]1C[C@H]1c1ccccc1Cl` (mixture of isomers) [Example 24, (±)-(4-Chloro-2-{trans-5-[2-(2-chloro-phenyl)-cyclopropanecarbonyl]-4,5,6,7-tetrahydro-thiazolo[5,4-c]pyridin-4-yl}-phenoxy)-acetic acid]: the IC50 is 7.3 nM. This IC50 and that of the molecule before are within 1.5-fold of each other.
In turn, `Cc1ccccc1[C@@H]1C[C@H]1C(=O)N1CCc2ncsc2C1c1cc(Cl)ccc1OCC(=O)O` (mixture of isomers) [Example 25, (±)-{4-Chloro-2-[trans-5-(2-o-tolyl-cyclopropanecarbonyl)-4,5,6,7-tetrahydro-thiazolo[5,4-c]pyridin-4-yl]-phenoxy}-acetic acid] came in with an IC50 of 6.5 nM.
In turn, `COc1ccc2[nH]cc(CCC(=O)N3CCc4ncsc4C3c3cc(Cl)ccc3OCC(=O)O)c2c1` (racemic) [Example 26, (±)-(4-Chloro-2-{5-[3-(5-methoxy-1H-indol-3-yl)-propionyl]-4,5,6,7-tetrahydro-thiazolo[5,4-c]pyridin-4-yl}-phenoxy)-acetic acid] displayed an IC50 of 45.1 nM.
Take `Cc1[nH]c2ccccc2c1CCC(=O)N1CCc2ncsc2C1c1cc(Cl)ccc1OCC(=O)O` (racemic) [Example 27, (±)-(4-Chloro-2-{5-[3-(2-methyl-1H-indol-3-yl)-propionyl]-4,5,6,7-tetrahydro-thiazolo[5,4-c]pyridin-4-yl}-phenoxy)-acetic acid]: the IC50 was determined as 219 nM.
Take `Cc1ccccc1CCC(=O)N1CCc2ncsc2C1c1cc(Cl)ccc1OCC(=O)O` (racemic) [Example 29, (±)-{4-Chloro-2-[5-(3-o-tolyl-propionyl)-4,5,6,7-tetrahydro-thiazolo[5,4-c]pyridin-4-yl]-phenoxy}-acetic acid]: the IC50 is 25.6 nM.
For the molecule `O=C(O)COc1ccc(Cl)cc1C1c2scnc2CCN1C(=O)CCCc1ccccc1F` (racemic) [Example 30, (±)-(4-Chloro-2-{5-[4-(2-fluoro-phenyl)-butyryl]-4,5,6,7-tetrahydro-thiazolo[5,4-c]pyridin-4-yl}-phenoxy)-acetic acid], the IC50 turned out to be 8.1 nM.
Consider `O=C(O)COc1ccc(Cl)cc1C1c2scnc2CCN1C(=O)COCc1ccccc1Cl` (racemic) [Example 31, (±)-(4-Chloro-2-{5-[2-(2-chloro-benzyloxy)-acetyl]-4,5,6,7-tetrahydro-thiazolo[5,4-c]pyridin-4-yl}-phenoxy)-acetic acid], for which the IC50 is 5 nM. This IC50 lies about 1.6-fold lower than the previous one.
`Cc1ccc(OCC(=O)N2CCc3ncsc3C2c2cc(Cl)ccc2OCC(=O)O)c(C)n1` (racemic) [Example 32, (±)-(4-Chloro-2-{5-[2-(2,6-dimethyl-pyridin-3-yloxy)-acetyl]-4,5,6,7-tetrahydro-thiazolo[5,4-c]pyridin-4-yl}-phenoxy)-acetic acid] showed an IC50 of 83.2 nM.
The molecule `O=C(O)COc1ccc(Cl)cc1C1c2scnc2CCN1C(=O)COc1ccccc1` (racemic) [Example 34, (±)-{4-Chloro-2-[5-(2-phenoxy-acetyl)-4,5,6,7-tetrahydro-thiazolo[5,4-c]pyridin-4-yl]-phenoxy}-acetic acid] came in with a concentration for half-maximal inhibition (IC50) of 87.4 nM. This IC50 and that of the molecule before are within 1.5-fold of each other.
In the case of `C[C@@H](CC(=O)N1CCc2ncsc2C1c1cc(Cl)ccc1OCC(=O)O)c1ccccc1` (mixture of isomers) [Example 35, (±)-{4-Chloro-2-[5-((S)-3-phenyl-butyryl)-4,5,6,7-tetrahydro-thiazolo[5,4-c]pyridin-4-yl]-phenoxy}-acetic acid], the IC50 is 355 nM.
In turn, `O=C(O)COc1ccc(Cl)cc1C1c2scnc2CCN1C(=O)C1Cc2ccccc2C1` (racemic) [Example 36, (±)-{4-Chloro-2-[5-(indane-2-carbonyl)-4,5,6,7-tetrahydro-thiazolo[5,4-c]pyridin-4-yl]-phenoxy}-acetic acid] registered an IC50 of 733 nM.
Regarding `O=C(O)COc1ccc(Cl)cc1C1c2scnc2CCN1C(=O)CC1(c2ccccc2)CC1` (racemic) [Example 37, (±)-(4-Chloro-2-{5-[2-(1-phenyl-cyclopropyl)-acetyl]-4,5,6,7-tetrahydro-thiazolo[5,4-c]pyridin-4-yl}-phenoxy)-acetic acid], the half-inhibitory concentration (IC50) was found to be 130 nM.
In turn, `C[C@H](CC(=O)N1CCc2ncsc2C1c1cc(Cl)ccc1OCC(=O)O)c1ccccc1` (mixture of isomers) [Example 38, (±)-{4-Chloro-2-[5-((R)-3-phenyl-butyryl)-4,5,6,7-tetrahydro-thiazolo[5,4-c]pyridin-4-yl]-phenoxy}-acetic acid] had an IC50 of 12.2 nM. Against the preceding molecule, the IC50 is about 11-fold lower.
For `O=C(O)COc1ccc(Cl)cc1[C@@H]1c2scnc2CCN1C(=O)C[C@H]1OCCc2ccccc21` (racemic) [Example 39, (±)-{4-Chloro-2-[5-((±)-2-isochroman-1-yl-acetyl)-4,5,6,7-tetrahydro-thiazolo[5,4-c]pyridin-4-yl]-phenoxy}-acetic acid], the IC50 was 99.1 nM.
For the molecule `CC(C)(C)CC(=O)N1CCc2ncsc2C1c1cc(Cl)ccc1OCC(=O)O` (racemic) [Example 40, (±)-{4-Chloro-2-[5-(3,3-dimethyl-butyryl)-4,5,6,7-tetrahydro-thiazolo[5,4-c]pyridin-4-yl]-phenoxy}-acetic acid], the IC50 is 950 nM.
For `O=C(O)COc1ccc(Cl)cc1C1c2scnc2CCN1C(=O)CC1CC1` (racemic) [Example 41, (±)-{4-Chloro-2-[5-(2-cyclopropyl-acetyl)-4,5,6,7-tetrahydro-thiazolo[5,4-c]pyridin-4-yl]-phenoxy}-acetic acid], the IC50 was determined as 83.9 nM.

Broadly, the IC50 is the concentration that gives 50% inhibition.

The values are drawn from patent US9169270B2, “1-phenyl-substituted heterocyclyl derivatives and their use as prostaglandin D2 receptor modulators” (Actelion Pharmaceuticals Ltd., priority 2012, dated 2015).
